Laboratory results as given in US20210189352A1, “ENHANCED REPROGRAMMING OF SOMATIC CELLS” (IMBA - INSTITUT FÜR MOLEKULARE BIOTECHNOLOGIE GMBH, priority 2017, published 2021).

Tested on: murine embryonic stem cell clone AN3-12
Assay: Etoposide treatment of mouse ES cells (LD30 dose)
Assay type: cell-based
Settings: 8 day treatment, medium supplemented every day
Description: A murine embryonic stem cell clone, derived from a derivative of HMSc2 termed AN3-12, with doxycycline inducible Cas9 (T3G-Cas9-IRES-mcherry PGK-GFP-rtTA) was used for this study. The following ES cell medium (ESCM) was used: 450 ml DMEM (Sigma D1152); 75 ml FCS (Invitrogen); 5.5 ml P/S (Sigma P0781); 5.5 ml NEAA (Sigma M7145); 5.5 ml LGlu (Sigma G7513); 5.5 ml NaPyr (Sigma S8636); 0.55 ml beta-mercapto ethanol (Merck 805740; dilute 10 μl bME in 2.85 ml PBS for a 1000× stock), 7.5 μl LIF (IMBA-MolBioService; 2 mg/ml). Cell culture-grade dishes were from Greiner (Greiner 15 cm 639160) and NUNC (all other formats, e.g. 10 cm dish Nunclon A Surface, cat no. 150350; 6-well Nunclon A Surface, cat no. 140675). Cells were trypsinized and replated every 2nd day and frozen in FCS:ESCM:DMSO=4.5:4.5:1. Cells were tested for mycoplasma every second week. Etoposide treatment: Medium was supplemented every day with 3.3 nM etoposide, an LD30 dose for 8 day treatment (Sigma E2600000), 1000× etoposide stocks dissolved in PBS-10% EtOH were used. For doxycycline treatment, medium was supplemented every day with 1 μg/ml (Sigma). Cells are tested for mycoplasma contamination every second week.

## COc1cc([C@@H]2c3cc4c(cc3[C@@H](O[C@@H]3O[C@@H]5CO[C@@H](C)O[C@H]5[C@H](O)[C@H]3O)[C@H]3COC(=O)[C@H]23)OCO4)cc(OC)c1O [etoposide]
  LD30 dose: 3.3 nM
